Entries after “also recorded” stand apart in the source; their conditions may differ. Where a SMILES comes first, the peptide text is derived from it. Bridges are numbered along the chain shown (N, C = ends).
How the values were obtained:
[1] = test system: HEK293T cells transfected with an empty vector; test: Calcium flux, HEK293T cells transfected with empty vector; assay type: cell-based, human; details: inotocin 100 nM
Protocol: Human embryonic kidney 293T (HEK293T) cells were cultured in DMEM supplemented with 10% FBS at 37°C in a tissue culture incubator with a humidified atmosphere containing 5% CO2. Cells were plated in 10-cm dishes, and, when they reached 60% to 70% confluency, they were transfected with a pcDNA3.3 vector containing approximately 1 ng of inotocin receptor cDNA or an empty vector as a control using Lipofectamine 2000. Cells were transfected directly into poly-D-lysine–coated 384-well plates and incubated for 48 hours at 37°C. Subsequently, cells were incubated with FLIPR Calcium 4 Assay kit dye for 1 hour in the incubator. The fluorescence (excitation, 488 nm; emission, 530 nm) of the wells was recorded using a Flex Station II 384 (Molecular Devices, San Jose, California, USA), and a dose curve of inotocin (0 to 3 μM) was applied to the wells, in sextuplicate (see below for inotocin peptide synthesis). We calculated the EC50 values using Prism (GraphPad Software version 8) nonlinear regression, 4-parameter logistic curve fit. Dose curves were repeated at least 3 times on independently prepared samples and different days. Results were consistent across replicates, and example dose curves are shown in Fig 1C and S4A Fig. Control experiments are shown in S2–S5 Figs.

[2] = test system: Ooceraea biroi ants; test: Pharmacological immersion, mixed-age colonies: ants outside the nest (S9 Fig); assay type: in vivo; details: immersion in 1 mM; mixed-age colonies with larvae; 5 hours; n = 6; p = 0.0002, extra sum-of-squares F-test
Excerpt: (§1) Mature O. biroi inotocin peptide (CLITNCPRG) was synthesized and cyclized at The Rockefeller University Proteomics Resource Center, along with a scrambled version of the peptide (NRPCGLTCI) as a negative control with identical amino acid composition.
For the initial experiment (S9 Fig), we set up 6 experimental colonies of line B ants that were color tagged as previously described. Each colony consisted of 16 ants in an airtight Petri dish with a 5-cm diameter; 8 age-matched 4-week-old and 8 age-matched approximately 20-week-old ants. We added ten 3- to 4-day-old larvae to the colonies. We used Logitech (Lausanne, Switzerland) C910 USB cameras to record 5 hours after the treatments, and we used ImageJ to split the videos in batches of 5,000 frames (corresponding to 18.75-minute intervals). We sampled every 10th frame from the 5,000 frames and overlaid the resulting 500 frames into a single image using ImageJ. In each image, we manually counted the number of instances of ants that were outside the nest as a proxy for foraging behavior. Color tagging was used to differentiate inotocin treated from mock treated and untreated ants. The nest was defined as a region of high density of ants in the 500 image projections.
On the day of the experiment, colonies were not fed. To avoid disturbance to the colony as much as possible, half the colony was left untreated, and half was treated. […]

[3] = test system: Ooceraea biroi ants; test: Pharmacological immersion, age- and brood-controlled colonies: distance traveled (automated tracking); assay type: in vivo; details: for foraging activity / distance traveled vs control peptide: immersion in 1 mM, 5 h, n = 20 ants
Excerpt: as §1
For the full experiment (Fig 3), we set up 20 experimental colonies of line B ants that were color painted as previously described. Each colony consisted of 16 ants in an airtight Petri dish with 5-cm diameter. Eight ants in each colony were 3 weeks old, and 8 ants in each colony were 20 weeks old. We added ten 3- to 4-day-old larvae to each of 10 colonies and 10 white (young) pupae to each of the remaining 10 colonies. Brood items often die soon after introduction to a colony, so we added 2 extra brood items per colony to ensure there were 8 alive at the start of the experiment. After the ants had settled for 3 days, we adjusted the number of brood items to 8 per colony, after which we performed the pharmacological treatments. The rationale of having a 1:2 larvae-to-workers ratio in this experiment was to assess the possible effect of increased inotocin levels on worker behavior without saturating the brood signal, as ant larvae regulate worker foraging behavior in a dose-dependent manner.
On the day of the experiment, colonies were not fed. To avoid disturbance to the colony as much as possible, half the colony was left untreated, and half was treated. The treatments consisted of immersing the ants in 1 mM solution of freshly dissolved inotocin or control peptide diluted in water and kept on ice. The immersion took place in 1.5-ml Eppendorf tubes that were gently tapped against the bench top for 7 consecutive minutes, after which the liquid was removed using a 1.5-ml transfer pipette. The remaining liquid was removed with a Kimwipe, and ants were transferred to their source colony. In each colony, we treated 2 ants per age category with inotocin and 2 ants per age category with the control peptide. Ants were allowed to recover for 1 hour after the treatment before the start of the video recordings.
Videos were recorded for 5 hours at 5 frames per second using Logitech C910 USB cameras. Individual ants were tracked using anTraX [85]. In short, ants were segmented using a background subtraction and fixed threshold procedure. Blobs in consecutive frames were threaded into sequences using the Horn–Schunk optical flow method and then classified as single ants or multiple ants based on blob size and linkage criteria. Single ant blob sequences were classified into their appropriate IDs as detailed in [85]. Ants that were detected as single blobs were deemed “active,” and their location was recorded (Fig 3B). The activity level of an ant was defined as the total distance traveled, and an activity time course was created for each ant by summing its activity in time bins of 15 minutes for the entire duration of the experiment. All ants in a colony were tracked. The activity across ants from a given condition from all experimental colonies was averaged in each time bin. The resulting curves were fitted with first- or second-order polynomials using nonlinear regression (least squares fit). The fitted curves were compared using extra sum-of-squares F-tests to select for the best fitted model and to compare between fitted curves, and statistical significance thresholds were adjusted for 2 comparisons within experiments using Bonferroni corrections (old inotocin versus old mock and young inotocin versus young mock). […]

CC[C@H](C)[C@@H]1NC(=O)[C@H](CC(C)C)NC(=O)[C@@H](N)CSSC[C@@H](C(=O)N2CCC[C@H]2C(=O)N[C@@H](CCCNC(=N)N)C(=O)NCC(N)=O)NC(=O)[C@H](CC(N)=O)NC(=O)[C@H]([C@@H](C)O)NC1=O [Inotocin] (H-CLITNCPRG-NH2; disulfide 1-6; N-terminus and C-terminus assumed)
calcium response [1]: No Ca^2+ influx is detected | time/instances outside the nest vs scrambled control peptide [2]: spent more time outside the nest than controls; also recorded: foraged more when treated with inotocin than when treated with the control peptide | foraging activity / distance traveled vs control peptide ([3]; old ants, larvae present, p < 0.0002, Bonferroni corrected): forage more than old ants treated with a control peptide; also recorded: displayed increased foraging activity in the presence of larvae; also recorded: had higher average distance traveled than ants under any other experimental condition | foraging activity / distance traveled vs control peptide ([3]; old ants, pupae present, p = 0.998, p > 0.99, Bonferroni corrected): no difference in foraging activity was found; also recorded: no effect of inotocin treatment was observed | tendency to leave the nest ([3]; overall statement, contingent on age and social context): increases the tendency of ants to leave the nest | foraging activity / distance traveled vs control peptide ([3]; young ants, larvae present, p = 0.106, p = 0.109, Bonferroni corrected): No difference in foraging activity was detected; also recorded: no behavioral difference | foraging activity / distance traveled vs control peptide ([3]; young ants, pupae present, p < 0.0002, Bonferroni corrected): foraged more when treated with inotocin; also recorded: slightly increased their activity; also recorded: increased their average distance traveled compared to ants under any other experimental condition

Source: PMC8244912, “An oxytocin/vasopressin-related neuropeptide modulates social foraging behavior in the clonal raider ant” (PLoS Biology, 2021)
